Source: the supplement of paper PMC10307832

Tests used:
Assay in all cases: relative viability (nuclei count vs DMSO), 5 days (fraction); higher = more cells survive
[1] = test system: NCI-H2085
Summary of the method: (§1)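 One day after seeding in 1536-well plates, lung cancer cell lines were dosed by pin tool. Dosing was either single-drug or a fixed anchor-drug dose plus five library-drug doses (not always all listed) in √10 steps. After 5 days, nuclei were stained in one fix-and-stain step and counted on 4× images, and relative viability is the nuclei count of treated wells over that of vehicle wells, given as the median of duplicate plates.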

[2] = test system: NCI-H1792
Summary of the method: as §1

[3] = test system: NCI-H1666
Summary of the method: as §1

[4] = test system: NCI-H1944
Summary of the method: as §1

[5] = test system: LC-2-ad
Summary of the method: as §1

[6] = test system: NCI-H460
Summary of the method: as §1

[7] = test system: NCI-H1793
Summary of the method: as §1

[8] = test system: EPLC-272H
Summary of the method: as §1

[9] = test system: LU99A
Summary of the method: as §1

[10] = test system: UMC-11
Summary of the method: as §1

[11] = test system: NCI-H2170
Summary of the method: as §1

[12] = test system: NCI-H2009
Summary of the method: as §1

[13] = test system: HCC-78
Summary of the method: as §1

[14] = test system: SK-LU-1
Summary of the method: as §1

[15] = test system: COR-L 105
Summary of the method: as §1

[16] = test system: A-427
Summary of the method: as §1

[17] = test system: LXF-289
Summary of the method: as §1

[18] = test system: HOP-62
Summary of the method: as §1

[19] = test system: NCI-H1915
Summary of the method: as §1

[20] = test system: HCC-366
Summary of the method: as §1

[21] = test system: NCI-H358
Summary of the method: as §1

With Nc1ccn([C@@H]2O[C@H](CO)[C@@H](O)[C@@H]2O)c(=O)n1 [Cytarabine] + Cc1nc(NC(=O)N2CCC[C@H]2C(N)=O)sc1-c1ccnc(C(C)(C)C(F)(F)F)c1 [Alpelisib] (partner 2 µM) the relative viability ([1]; first compound 0.005 µM) was 0.936, the relative viability ([1]; first compound 0.01581 µM) was 0.827 and the relative viability ([1]; first compound 0.05 µM) was 0.869. It also gave a relative viability ([1]; first compound 0.1581 µM) of 0.62, a relative viability ([1]; first compound 0.5 µM) of 0.558 and a relative viability ([2]; first compound 0.005 µM) of 0.553. The relative viability ([2]; first compound 0.01581 µM) was 0.644, the relative viability ([2]; first compound 0.05 µM) was 0.659 and the relative viability ([2]; first compound 0.1581 µM) was 0.387. It also gave a relative viability ([2]; first compound 0.5 µM) of 0.343, a relative viability ([3]; first compound 0.005 µM) of 0.751 and a relative viability ([3]; first compound 0.01581 µM) of 0.855. It also gave a relative viability ([3]; first compound 0.05 µM) of 0.647, a relative viability ([3]; first compound 0.1581 µM) of 0.279 and a relative viability ([3]; first compound 0.5 µM) of 0.35. It also gave a relative viability ([4]; first compound 0.005 µM) of 0.563, a relative viability ([4]; first compound 0.01581 µM) of 0.361 and a relative viability ([4]; first compound 0.05 µM) of 0.364. For the same compound, the relative viability ([4]; first compound 0.1581 µM) was 0.183, the relative viability ([4]; first compound 0.5 µM) was 0.144 and the relative viability ([5]; first compound 0.005 µM) was 0.898. For the same compound, the relative viability ([5]; first compound 0.01581 µM) was 0.785, the relative viability ([5]; first compound 0.05 µM) was 0.802 and the relative viability ([5]; first compound 0.1581 µM) was 0.441. For the same compound, the relative viability ([5]; first compound 0.5 µM) was 0.228, the relative viability ([6]; first compound 0.005 µM) was 0.31 and the relative viability ([6]; first compound 0.01581 µM) was 0.252. It also gave a relative viability ([6]; first compound 0.05 µM) of 0.121, a relative viability ([6]; first compound 0.1581 µM) of 0.0355 and a relative viability ([6]; first compound 0.5 µM) of 0.0251. The relative viability ([7]; first compound 0.005 µM) was 0.573, the relative viability ([7]; first compound 0.01581 µM) was 0.687 and the relative viability ([7]; first compound 0.05 µM) was 0.691. It also gave a relative viability ([7]; first compound 0.1581 µM) of 0.389, a relative viability ([7]; first compound 0.5 µM) of 0.251 and a relative viability ([8]; first compound 0.005 µM) of 0.7. It also gave a relative viability ([8]; first compound 0.01581 µM) of 0.781, a relative viability ([8]; first compound 0.05 µM) of 0.609 and a relative viability ([8]; first compound 0.1581 µM) of 0.345. The relative viability ([8]; first compound 0.5 µM) was 0.337, the relative viability ([9]; first compound 0.005 µM) was 0.519 and the relative viability ([9]; first compound 0.01581 µM) was 0.565. For the same compound, the relative viability ([9]; first compound 0.05 µM) was 0.51, the relative viability ([9]; first compound 0.1581 µM) was 0.5 and the relative viability ([9]; first compound 0.5 µM) was 0.406. For the same compound, the relative viability ([10]; first compound 0.005 µM) was 0.496, the relative viability ([10]; first compound 0.01581 µM) was 0.463 and the relative viability ([10]; first compound 0.05 µM) was 0.375. For the same compound, the relative viability ([10]; first compound 0.1581 µM) was 0.192, the relative viability ([10]; first compound 0.5 µM) was 0.18 and the relative viability ([11]; first compound 0.01581 µM) was 0.606. It also gave a relative viability ([11]; first compound 0.05 µM) of 0.562, a relative viability ([11]; first compound 0.1581 µM) of 0.389 and a relative viability ([11]; first compound 0.5 µM) of 0.314. It also gave a relative viability ([12]; first compound 0.005 µM) of 1.14, a relative viability ([12]; first compound 0.01581 µM) of 1.13 and a relative viability ([12]; first compound 0.05 µM) of 1.26. It also gave a relative viability ([12]; first compound 0.1581 µM) of 0.937, a relative viability ([12]; first compound 0.5 µM) of 0.473 and a relative viability ([13]; first compound 0.005 µM) of 0.41. It also gave a relative viability ([13]; first compound 0.01581 µM) of 0.298, a relative viability ([13]; first compound 0.05 µM) of 0.281 and a relative viability ([13]; first compound 0.1581 µM) of 0.185. For the same compound, the relative viability ([13]; first compound 0.5 µM) was 0.202, the relative viability ([14]; first compound 0.005 µM) was 0.805 and the relative viability ([14]; first compound 0.01581 µM) was 0.826. It also gave a relative viability ([14]; first compound 0.05 µM) of 0.62, a relative viability ([14]; first compound 0.1581 µM) of 0.347 and a relative viability ([14]; first compound 0.5 µM) of 0.303. The relative viability ([15]; first compound 0.005 µM) was 0.86, the relative viability ([15]; first compound 0.01581 µM) was 1.07 and the relative viability ([15]; first compound 0.05 µM) was 0.675. For the same compound, the relative viability ([15]; first compound 0.1581 µM) was 0.444, the relative viability ([15]; first compound 0.5 µM) was 0.355 and the relative viability ([16]; first compound 0.005 µM) was 0.823. It also gave a relative viability ([16]; first compound 0.01581 µM) of 0.518, a relative viability ([16]; first compound 0.05 µM) of 0.226 and a relative viability ([16]; first compound 0.1581 µM) of 0.155. The relative viability ([16]; first compound 0.5 µM) was 0.14, the relative viability ([17]; first compound 0.005 µM) was 1.02 and the relative viability ([17]; first compound 0.01581 µM) was 1.05. For the same compound, the relative viability ([17]; first compound 0.05 µM) was 0.764, the relative viability ([17]; first compound 0.1581 µM) was 0.356 and the relative viability ([17]; first compound 0.5 µM) was 0.268. It also gave a relative viability ([18]; first compound 0.005 µM) of 0.793, a relative viability ([18]; first compound 0.01581 µM) of 0.394 and a relative viability ([18]; first compound 0.05 µM) of 0.348. It also gave a relative viability ([18]; first compound 0.1581 µM) of 0.0724, a relative viability ([18]; first compound 0.5 µM) of 0.102 and a relative viability ([19]; first compound 0.005 µM) of 1.04. For the same compound, the relative viability ([19]; first compound 0.01581 µM) was 0.915, the relative viability ([19]; first compound 0.05 µM) was 0.851 and the relative viability ([19]; first compound 0.1581 µM) was 0.493. The relative viability ([19]; first compound 0.5 µM) was 0.394, the relative viability ([20]; first compound 0.005 µM) was 0.281 and the relative viability ([20]; first compound 0.01581 µM) was 0.228. It also gave a relative viability ([20]; first compound 0.05 µM) of 0.104, a relative viability ([20]; first compound 0.1581 µM) of 0.047 and a relative viability ([20]; first compound 0.5 µM) of 0.019. For the same compound, the relative viability ([21]; first compound 0.005 µM) was 0.573, the relative viability ([21]; first compound 0.01581 µM) was 0.516 and the relative viability ([21]; first compound 0.05 µM) was 0.363. For the same compound, the relative viability ([21]; first compound 0.1581 µM) was 0.177 and the relative viability ([21]; first compound 0.5 µM) was 0.148.
